What was measured:
NIH/Swiss female mice = assay: in vivo basal glucose lowering assay; conditions: subcutaneous injection
Method: Some compounds shown in Table 1 below were analyzed in an in vivo basal glucose lowering assay using the following procedure: A subcutaneous injection of either 200 μl phosphate-buffered saline (PBS) vehicle or test article was given immediately following baseline glucose (t=0) to NIH/Swiss female mice. Tail blood glucose samples were measured at t=2 and 4 hours post dose using a OneTouch® Ultra® (LifeScan, Inc., a Johnson & Johnson Company, Milpitas, Calif.). Body weight was measured daily. Significant test sample effects were identified by ANOVA (p<0.05), followed by Dunnett's post test using GraphPad Prism version 4.00 for Windows (GraphPad Software, San Diego Calif.).

GLP-1 receptor = biological target: T1, GLP-1 receptor (Rattus norvegicus, UniProt P32301); assay: in vitro functional assay at the GLP-1 receptor (cyclase, cAMP production in RIN m5f cell membranes); type: biochemical; conditions: Cyclase GLP-1 Receptor EC50 (nM), Table 1; RIN m5f cell membranes, cAMP production (AlphaScreen)
T1 construct: 96-well assay plate containing RIN m5f cell membranes in an ATP/GTP mixture; endogenous in cells; host or cells: RIN m5f cell membranes
T1 sequence (P32301 22-463): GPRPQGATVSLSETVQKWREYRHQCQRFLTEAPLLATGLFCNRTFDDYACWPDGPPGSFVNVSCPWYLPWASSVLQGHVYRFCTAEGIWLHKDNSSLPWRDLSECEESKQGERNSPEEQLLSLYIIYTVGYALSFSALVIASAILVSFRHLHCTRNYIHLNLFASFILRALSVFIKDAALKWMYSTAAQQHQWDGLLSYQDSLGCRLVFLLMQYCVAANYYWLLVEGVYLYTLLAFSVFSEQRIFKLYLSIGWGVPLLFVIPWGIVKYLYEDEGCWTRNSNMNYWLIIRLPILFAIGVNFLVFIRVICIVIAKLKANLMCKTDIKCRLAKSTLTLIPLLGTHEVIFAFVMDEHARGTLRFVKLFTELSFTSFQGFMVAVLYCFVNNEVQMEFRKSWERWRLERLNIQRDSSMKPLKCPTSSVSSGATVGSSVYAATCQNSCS
Method: The compounds shown in Table 1 below were analyzed in an in vitro functional assay at the GLP-1 receptor. The assay was conducted as follows: Membrane fractions were prepared from confluent cultures of RIN m5f cells. Compounds were serially diluted with an assay buffer, and then added to a 96-well assay plate containing RIN m5f cell membranes in an ATP/GTP mixture. Cyclase activities were determined by measuring the production of cAMP induced through GLP-1 receptor activation. Quantification of cAMP production was achieved through a competitive chemiluminescence assay with a biotinylated-cAMP probe using Perkin Elmer Fusion™-Alpha Microplate Analyzer (AlphaScreen™ technology). The compound EC50 values were obtained through fitting the concentration-response curves to a four-parameter logistic equation within GraphPad PRISM® software.

[1] = Table 1, result in words (inactive / similar to GLP-1)
[2] = Table 1, time in hours, tail blood glucose at t=2 and 4 hours post dose

CC[C@H](C)[C@H](NC(=O)[C@H](Cc1ccccc1)NC(=O)[C@H](CC(C)C)NC(=O)[C@H](CCCNC(=N)N)NC(=O)[C@@H](NC(=O)[C@H](C)NC(=O)[C@H](CCC(=O)O)NC(=O)[C@H](CCC(=O)O)NC(=O)[C@H](CCC(=O)O)NC(=O)[C@H](CC(C)C)NC(=O)[C@H](CCC(N)=O)NC(=O)[C@H](CCCCN)NC(=O)[C@H](CO)NC(=O)[C@H](CC(C)C)NC(=O)[C@H](CC(=O)O)NC(=O)[C@H](CO)NC(=O)[C@@H](NC(=O)[C@H](Cc1ccccc1)NC(=O)[C@@H](NC(=O)[C@@H]1CSC2C[C@@H](C(=O)O)[C@H](NC(=O)[C@H](C)NC(=O)[C@@H](N)Cc3c[nH]cn3)C(=O)N21)[C@@H](C)O)[C@@H](C)O)C(C)C)C(=O)N[C@@H](CCC(=O)O)C(=O)N[C@@H](Cc1c[nH]c2ccccc12)C(=O)N[C@@H](CC(C)C)C(=O)N[C@@H](CCCCN)C(=O)N[C@@H](CCC(N)=O)C(=O)NCC(=O)NCC(=O)N1CCC[C@H]1C(=O)N[C@@H](CO)C(=O)N[C@@H](CCCCN)C(=O)N[C@@H](CCC(=O)O)C(=O)N[C@H](C(=O)N[C@H](C(=O)N[C@@H](CO)C(=O)O)[C@@H](C)CC)[C@@H](C)CC (some centres unmarked) [16C]
In Vivo Glucose-Lowering Assay (NIH/Swiss female mice; [1]): inactive
EC50 (GLP-1 receptor): 1.1 nM

CC[C@H](C)[C@H](NC(=O)[C@H](Cc1ccccc1)NC(=O)[C@H](CC(C)C)NC(=O)[C@H](CCCNC(=N)N)NC(=O)[C@@H](NC(=O)[C@H](C)NC(=O)[C@H](CCC(=O)O)NC(=O)[C@H](CCC(=O)O)NC(=O)[C@H](CCC(=O)O)NC(=O)[C@H](CC(C)C)NC(=O)[C@H](CCC(N)=O)NC(=O)[C@H](CCCCN)NC(=O)[C@H](CO)NC(=O)[C@H](CC(C)C)NC(=O)[C@H](CC(=O)O)NC(=O)[C@H](CO)NC(=O)[C@@H](NC(=O)[C@H](Cc1ccccc1)NC(=O)[C@@H](NC(=O)[C@H]1CCCN(C(=O)[C@@H]2CCCN(C(=O)[C@H](C)NC(=O)[C@@H](N)Cc3c[nH]cn3)C2)C1)[C@@H](C)O)[C@@H](C)O)C(C)C)C(=O)N[C@@H](CCC(=O)O)C(=O)N[C@@H](Cc1c[nH]c2ccccc12)C(=O)N[C@@H](CC(C)C)C(=O)N[C@@H](CCCCN)C(=O)N[C@@H](CCC(N)=O)C(=O)NCC(=O)NCC(=O)N1CCC[C@H]1C(=O)N[C@@H](CO)C(=O)N[C@@H](CCCCN)C(=O)N[C@@H](CCC(=O)O)C(=O)N[C@H](C(=O)N[C@H](C(=O)N[C@@H](CO)C(N)=O)[C@@H](C)CC)[C@@H](C)CC [15A]
In Vivo Glucose-Lowering Assay (NIH/Swiss female mice; [1]): inactive

CC[C@H](C)[C@H](NC(=O)[C@H](Cc1ccccc1)NC(=O)[C@H](CC(C)C)NC(=O)[C@H](CCCNC(=N)N)NC(=O)[C@@H](NC(=O)[C@H](C)NC(=O)[C@H](CCC(=O)O)NC(=O)[C@H](CCC(=O)O)NC(=O)[C@H](CCC(=O)O)NC(=O)[C@H](CC(C)C)NC(=O)[C@H](CCC(N)=O)NC(=O)[C@H](CCCCN)NC(=O)[C@H](CO)NC(=O)[C@H](CC(C)C)NC(=O)[C@H](CC(=O)O)NC(=O)[C@H](CO)NC(=O)[C@@H](NC(=O)[C@H](Cc1ccccc1)NC(=O)[C@@H](NC(=O)CNC(=O)[C@@H]1CCCN1C(=O)CNC(=O)[C@@H](N)Cc1c[nH]cn1)[C@@H](C)O)[C@@H](C)O)C(C)C)C(=O)N[C@@H](CCC(=O)O)C(=O)N[C@@H](Cc1c[nH]c2ccccc12)C(=O)N[C@@H](CC(C)C)C(=O)N[C@@H](CCCCN)C(=O)N[C@@H](CCC(N)=O)C(=O)NCC(=O)NCC(=O)N1CCC[C@H]1C(=O)N[C@@H](CO)C(=O)N[C@@H](CCCCN)C(=O)N[C@@H](CCC(=O)O)C(=O)N[C@H](C(=O)N[C@H](C(=O)N[C@@H](CO)C(N)=O)[C@@H](C)CC)[C@@H](C)CC [2B]
In Vivo Glucose-Lowering Assay (NIH/Swiss female mice; [2]): more than 4 hours

CC[C@H](C)[C@H](NC(=O)[C@H](Cc1ccccc1)NC(=O)[C@H](CC(C)C)NC(=O)[C@H](CCCNC(=N)N)NC(=O)[C@@H](NC(=O)[C@H](C)NC(=O)[C@H](CCC(=O)O)NC(=O)[C@H](CCC(=O)O)NC(=O)[C@H](CCC(=O)O)NC(=O)[C@H](CC(C)C)NC(=O)[C@H](CCC(N)=O)NC(=O)[C@H](CCCCN)NC(=O)[C@H](CO)NC(=O)[C@H](CC(C)C)NC(=O)[C@H](CC(=O)O)NC(=O)[C@H](CO)NC(=O)[C@@H](NC(=O)[C@H](Cc1ccccc1)NC(=O)[C@@H](NC(=O)CNC(=O)[C@@H]1C[C@@H](O)CN1C(=O)CNC(=O)[C@@H](N)Cc1c[nH]cn1)[C@@H](C)O)[C@@H](C)O)C(C)C)C(=O)N[C@@H](CCC(=O)O)C(=O)N[C@@H](Cc1c[nH]c2ccccc12)C(=O)N[C@@H](CC(C)C)C(=O)N[C@@H](CCCCN)C(=O)N[C@@H](CCC(N)=O)C(=O)NCC(=O)NCC(=O)N1CCC[C@H]1C(=O)N[C@@H](CO)C(=O)N[C@@H](CCCCN)C(=O)N[C@@H](CCC(=O)O)C(=O)N[C@H](C(=O)N[C@H](C(=O)N[C@@H](CO)C(N)=O)[C@@H](C)CC)[C@@H](C)CC [2I]
In Vivo Glucose-Lowering Assay (NIH/Swiss female mice; [2]): more than 4 hours

CC[C@H](C)[C@H](NC(=O)[C@H](Cc1ccccc1)NC(=O)[C@H](CC(C)C)NC(=O)[C@H](CCCNC(=N)N)NC(=O)[C@@H](NC(=O)[C@H](C)NC(=O)[C@H](CCC(=O)O)NC(=O)[C@H](CCC(=O)O)NC(=O)[C@H](CCC(=O)O)NC(=O)[C@H](CC(C)C)NC(=O)[C@H](CCC(N)=O)NC(=O)[C@H](CCCCN)NC(=O)[C@H](CO)NC(=O)[C@H](CC(C)C)NC(=O)[C@H](CC(=O)O)NC(=O)[C@H](CO)NC(=O)[C@@H](NC(=O)[C@H](Cc1ccccc1)NC(=O)[C@@H](NC(=O)CNC(=O)[C@@H]1CCCCN1C(=O)CNC(=O)[C@@H](N)Cc1c[nH]cn1)[C@@H](C)O)[C@@H](C)O)C(C)C)C(=O)N[C@@H](CCC(=O)O)C(=O)N[C@@H](Cc1c[nH]c2ccccc12)C(=O)N[C@@H](CC(C)C)C(=O)N[C@@H](CCCCN)C(=O)N[C@@H](CCC(N)=O)C(=O)NCC(=O)NCC(=O)N1CCC[C@H]1C(=O)N[C@@H](CO)C(=O)N[C@@H](CCCCN)C(=O)N[C@@H](CCC(=O)O)C(=O)N[C@H](C(=O)N[C@H](C(=O)N[C@@H](CO)C(N)=O)[C@@H](C)CC)[C@@H](C)CC [2F]
In Vivo Glucose-Lowering Assay (NIH/Swiss female mice; [2]): more than 4 hours

CC[C@H](C)[C@H](NC(=O)[C@H](Cc1ccccc1)NC(=O)[C@H](CC(C)C)NC(=O)[C@H](CCCNC(=N)N)NC(=O)[C@@H](NC(=O)[C@H](C)NC(=O)[C@H](CCC(=O)O)NC(=O)[C@H](CCC(=O)O)NC(=O)[C@H](CCC(=O)O)NC(=O)[C@H](CC(C)C)NC(=O)[C@H](CCC(N)=O)NC(=O)[C@H](CCCCN)NC(=O)[C@H](CO)NC(=O)[C@H](CC(C)C)NC(=O)[C@H](CC(=O)O)NC(=O)[C@H](CO)NC(=O)[C@@H](NC(=O)[C@H](Cc1ccccc1)NC(=O)[C@@H](NC(=O)CNC(=O)[C@H]1CCCN(C(=O)[C@@H]2CCCN(C(=O)[C@@H](N)Cc3c[nH]cn3)C2)C1)[C@@H](C)O)[C@@H](C)O)C(C)C)C(=O)N[C@@H](CCC(=O)O)C(=O)N[C@@H](Cc1c[nH]c2ccccc12)C(=O)N[C@@H](CC(C)C)C(=O)N[C@@H](CCCCN)C(=O)N[C@@H](CCC(N)=O)C(=O)NCC(=O)NCC(=O)N1CCC[C@H]1C(=O)N[C@@H](CO)C(=O)N[C@@H](CCCCN)C(=O)N[C@@H](CCC(=O)O)C(=O)N[C@H](C(=O)N[C@H](C(=O)N[C@@H](CO)C(N)=O)[C@@H](C)CC)[C@@H](C)CC [15C]
In Vivo Glucose-Lowering Assay (NIH/Swiss female mice; [1]): inactive

CC[C@H](C)[C@H](NC(=O)[C@H](Cc1ccccc1)NC(=O)[C@H](CC(C)C)NC(=O)[C@H](CCCNC(=N)N)NC(=O)[C@@H](NC(=O)[C@H](C)NC(=O)[C@H](CCC(=O)O)NC(=O)[C@H](CCC(=O)O)NC(=O)[C@H](CCC(=O)O)NC(=O)[C@H](CC(C)C)NC(=O)[C@H](CCC(N)=O)NC(=O)[C@H](CCCCN)NC(=O)[C@H](CO)NC(=O)[C@H](CC(C)C)NC(=O)[C@H](CC(=O)O)NC(=O)[C@H](CO)NC(=O)[C@@H](NC(=O)[C@H](Cc1ccccc1)NC(=O)[C@@H](NC(=O)CNC(=O)[C@@H]1CCCN(C(=O)[C@H]2CCCN(C(=O)[C@@H](N)Cc3c[nH]cn3)C2)C1)[C@@H](C)O)[C@@H](C)O)C(C)C)C(=O)N[C@@H](CCC(=O)O)C(=O)N[C@@H](Cc1c[nH]c2ccccc12)C(=O)N[C@@H](CC(C)C)C(=O)N[C@@H](CCCCN)C(=O)N[C@@H](CCC(N)=O)C(=O)NCC(=O)NCC(=O)N1CCC[C@H]1C(=O)N[C@@H](CO)C(=O)N[C@@H](CCCCN)C(=O)N[C@@H](CCC(=O)O)C(=O)N[C@H](C(=O)N[C@H](C(=O)N[C@@H](CO)C(N)=O)[C@@H](C)CC)[C@@H](C)CC [15D]
In Vivo Glucose-Lowering Assay (NIH/Swiss female mice; [1]): inactive

From patent US8642544B2, “N-terminus conformationally constrained GLP-1 receptor agonist compounds” (Amylin Pharmaceuticals, LLC, priority 2009, dated 2014)
